Results: patent US20250052751A1, “COMPOSITIONS AND METHODS FOR DIAGNOSING AUTOIMMUNE AQUAPORINOPATHY” (The Regents of the University of California, priority 2023, published 2025)

How the values were obtained:
CD4^+ T cells = experiment: I-A^b:peptide tetramer binding by flow cytometry after peptide immunization; assay type: cell-based, mouse; conditions: Aire^−/− mice, I-A^b:IRBP p277-289 tetramer
Protocol: (§1) FIGS. 4A-4B. Negative selection of AQP4 p133-149-reactive T cells is bypassed partially in mice deficient in thymic AQP4 expression. (FIG. 4A) AQP4^−/− WT, Foxn1cre-AQP4^fl/fl, Aire^−/−, or Foxn1cre-Fezf2^fl/fl mice were immunized s.c. with peptides indicated. Peptide-specific proliferation of draining lymph node cells was measured by 3H-thymidine incorporation (mean±SEM, representative of five experiments). Comparisons within the five experiments for p133-149 at […]: WT vs. AQP4^−/− (p=0.008), WT vs. Foxn1cre-AQP4^fl/fl (p=0.008). (FIG. 4B) Ten days after peptide immunization, CD4^+ T cells from draining lymph nodes were analyzed for I-A^b: peptide tetramer binding by flow cytometry. Each data point represents the frequency (mean±SEM) of CD4^+ T cells bound to cognate antigen-tetramer in a single mouse. […] For p133-149: WT vs. Aire^−/− (p=0.9), WT vs. Foxn1cre-Fezf2^fl/fl (p=0.3). For p202-218: WT vs. Foxn1cre-AQP4^fl/fl (p=0.3), WT vs. Aire^−/− (p=0.06).
Flow cytometry. For analysis of tetramer binding, AQP4 p133-149, p202-218, IRBP p277-289 and hCLIP p87-101 IA^b tetramers conjugated to PE or APC were provided by the National Institute of Allergy and Infectious Diseases Tetramer Core Facility at Emory University. Lymphocytes were coincubated with 1 mg/ml tetramer conjugated to PE or APC for 2 hours at room temperature, washed and enriched using anti-PE magnetic microbeads (Miltenyi) over a magnetic column. Binding to hCLIP tetramer was used as a negative control. Dead cells were excluded using Live/Dead fixable Aqua Dead Cell Stain Kit (Invitrogen), lineage negative cells were excluded using antibodies to CD11b (M1/70), B220 (RA3-6B2) and CD8 (53-6.7) and positive cells were selected using antibodies to CD3 (145-2C11) and CD4 (RM4.5). 123count eBeads (Invitrogen) were used with unenriched and enriched samples for quantification of the frequency of tet^+CD4^+ T cells (total number of tet^+CD4+ T cells divided by total CD4^+ T cells per mouse). For figures showing tetramer staining, flow cytometry of the unenriched cells are shown. For analysis of GFP^+ T cells, mice were perfused with PBS, and the CNS was dissected, minced, digested with collagenase and DNase I (Roche), and isolated over a Ficoll gradient as described previously (39). Live CD4^+ cells were analyzed with a viability stain (Near-IR), and antibodies to CD11b, B220, CD8 and CD4. Apoptosis was analyzed separately using the same antibody staining, followed by Annexin V and 7-AAD staining in Annexin V binding buffer (BioLegend) per manufacturer's instructions. Cells were quantified using 123count eBeads.

[1] = target: T1, MHC class II I-A^b molecules (Mus musculus, UniProt P14434+P14483); experiment: I-A^b affinity assay (competitive binding against a radiolabeled high-affinity peptide); conditions: purified I-A^b; unlabeled peptide vs radiolabeled high-affinity competitor peptide
T1 construct: made in house
T1 sequence (P14434 24-256): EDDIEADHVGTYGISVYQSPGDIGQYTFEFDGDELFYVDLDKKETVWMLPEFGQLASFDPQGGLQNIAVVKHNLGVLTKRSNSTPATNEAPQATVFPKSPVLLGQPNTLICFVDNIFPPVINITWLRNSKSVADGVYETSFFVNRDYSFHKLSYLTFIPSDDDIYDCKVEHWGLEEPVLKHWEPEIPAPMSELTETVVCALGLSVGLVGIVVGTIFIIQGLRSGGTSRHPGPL
T1 sequence (P14483 28-265): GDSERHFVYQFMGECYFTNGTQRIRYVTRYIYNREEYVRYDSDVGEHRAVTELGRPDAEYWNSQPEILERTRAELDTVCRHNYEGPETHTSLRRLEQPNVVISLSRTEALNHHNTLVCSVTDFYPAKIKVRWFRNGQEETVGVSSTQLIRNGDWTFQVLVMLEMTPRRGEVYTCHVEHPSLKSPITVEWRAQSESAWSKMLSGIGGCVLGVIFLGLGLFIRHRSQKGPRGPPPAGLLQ
Protocol: (§2) FIGS. 2A-2F. Pathogenic AQP4 determinants bind I-A^b with high affinity and elicit proliferation of AQP4: I-A^b-specific TCR-bearing T cells in AQP4-deficient mice. (FIG. 2A) WT or AQP4^−/− mice were immunized s.c. with peptides indicated. Peptide-specific proliferation of draining lymph node cells was measured by 3H-thymidine incorporation (mean±SEM, representative of five experiments). (FIG. 2B) Lymph node cells from AQP4 immunized WT or AQP4^−/− mice were cultured for 3 days with cognate antigen under Th17 polarizing conditions. AQP4 p133-149- and p202-218-specific Th17 cells from AQP4/donors induce paralysis in WT recipient mice. (FIG. 2C) IEDB, an in silico method for predicting determinants within proteins that bind MHC alleles, was used to identify AQP4 amino acid sequences anticipated to bind I-A^b for recognition by AQP4-specific/I-A^b-restricted CD4^+ T cells. 1/IC50 is plotted against the first amino acid for each overlapping AQP4 15 mer. Peaks correspond to increased predicted binding affinity. (FIG. 2D) Purified I-A^b molecules were tested biochemically for peptide binding affinity using a competitive binding assay between a radiolabeled high-affinity competitor peptide and unlabeled peptides (22). Lower IC50 values indicate higher binding affinity. Boxed amino acids designate the core binding regions. (FIGS. 2E-2F) Lymph node T cells isolated from WT or AQP4−/− mice immunized with AQP4 p133-149 or p202-218 were stained with I-A^b:p133-149 and […] tetramers, bead-enriched and analyzed by flow cytometry. […] Each data point represents one mouse. ****p<0.0001 (Mann Whitney U test).
Both AQP4 p133-149 and p202-218 are predicted to bind MHC II (I-A^b) with high affinity according to the Immune Epitope Database (IEDB) (FIG. 2C), an in silico method for predicting determinants within proteins that bind allele-specific MHC molecules for presentation to T cells (21). We have now examined AQP4 peptide affinity for I-A^b biochemically. I-A^b molecules that were purified by affinity chromatography were tested in a competitive binding assay between a radiolabeled high-affinity competitor peptide and unlabeled peptides (22). Indeed, peptides containing the two pathogenic AQP4 T cell determinants bound I-A^b with higher affinity than the nonpathogenic AQP4 p24-35 T cell epitope or MOG p35-55 (FIG. 2D).
I-A^b affinity Assay. Purification of MHC class II I-A^b molecules by affinity chromatography, and the performance of assays based on the inhibition of binding of a high affinity radiolabeled peptide to quantitatively measure peptide binding, were performed as described (22). Lower IC50 values indicate higher binding affinity. Excellent binders have affinities less than 100 nM and good binders have affinities less than 1000 nM.

TCRα deficient mice = experiment: Adoptive transfer of peptide-primed, AQP4 201-220-cultured Th17 cells into TCRα deficient mice; assay type: in vivo, mouse; conditions: for clinical CNS autoimmune disease after transfer of primed Th17 cells: donor AQP4-deficient mice primed with the peptide, cells cultured with AQP4 201-220, 2×10^7 T cells into TCRα deficient mice; for meningeal and parenchymal infiltrates vs OVA primed T cells: recipients of primed donor T cells, histological analysis
Protocol: FIGS. 9A-9C. T cells reactive to AQP5, an autoantigen in Sjögren's syndrome also recognize AQP4, the autoantigen in NMO, and can cause CNS autoimmune disease. (FIG. 9A) AQP4-deficient mice were immunized with AQP4 p201-220, AQP5 p174-190 or OVA 323-339. 10-12 days later lymphocytes from draining lymph nodes are removed and cultured with AQP4 201-220 under Th17 polarizing conditions for 72 hours. 2×10^7 T cells were transferred into TCRα deficient mice, followed by 200 ng Pertussis toxin at days 0 and 2. […] Statistics performed using ANOVA with Tukey's test for multiple comparisons. ****P<0.0001.
CNS autoimmune disease induction and analysis. For adoptive induction of CNS disease with primary lymphocytes, mice were immunized s.c. with 100 μg AQP4 or MOG peptides in CFA containing 400 μg M. tuberculosis H37Ra (Difco Laboratories). After 10-12 days, lymph node cells were cultured with 15 μg/ml antigen for 3 days with 20 ng/ml IL-23 and 10 ng/ml IL-6, under Th17 polarizing conditions. 2×10^7 cells were injected i.v. into naïve recipients, which then received 200 ng B. pertussis toxin (Ptx) (List Biological) i.p. on days 0 and 2. Clinical scores: 0=no disease, 1=tail tone loss, 2=impaired righting, 3=severe paraparesis or paraplegia, 4=quadraparesis, and 5=moribund or death.
Histopathology. Brain, spinal cord, optic nerve, kidney and muscle tissue samples were fixed in 10% neutral-buffered formalin, paraffin-embedded, sectioned and stained with H&E. Meningeal and parenchymal inflammatory lesions and areas of demyelination were assessed in a blinded manner as described (39).

[2] = tested on: draining lymph node cells; experiment: Proliferation assay, ^3H-thymidine incorporation after s.c. peptide immunization; assay type: cell-based, mouse
Protocol: as §2, §1
(§3) Proliferation assays. Mice were immunized subcutaneously (s.c.) with 100 μg of AQP4, MOG or IRBP peptide in CFA containing 400 μg M. tuberculosis H37Ra (Difco Laboratories). Lymph nodes were harvested on day 10-12 and cultured at 2×10^5/well with various concentrations of peptide in triplicate wells for 72 hours. […] of ^3H-thymidine was added 18 hours prior to cell harvest, and data are presented as counts per minute (CPM). Stimulation Index (SI) was calculated by dividing CPM in wells with Ag by CPM in wells with no antigen controls of each assay test group.

[3] = tested on: draining lymph node cells; experiment: T cell cross-reactivity between AQP4 and AQP5, ^3H-thymidine proliferation; assay type: cell-based, mouse; conditions: AQP4-deficient mice immunized with 100 μg AQP5 p174-190; cells cultured with AQP4 201-220, then restimulated
Protocol: FIG. 8. T cells cross-react with AQP4 and AQP5. AQP4-deficient mice were immunized with 100 μg of AQP5 p174-190. Draining lymph node cells were cultured with AQP4 201-220, then restimulated with the different antigens. Proliferation was measured by ^3H-thymidine incorporation of the stimulation to antigen divided by the background stimulation (mean±SEM).
as §3

For “IRBP p277-289: Aire-dependent T cell determinant of interphotoreceptor retinoid-binding protein (FLTVPVSRSLGPL; UniProt P49194 277-289, looked up, fragment) [reference compound]”, the “expansion of CD4^+ tet^+ T cells” value (CD4^+ T cells) was “promoted expansion”.
For “AQP4 p201-220: AQP4 T cell epitope (201-220) that causes CNS autoimmunity in mice (HLFAINYTGASMNPARSFGP; UniProt P55088 201-220, looked up, fragment)”, the “peptide binding affinity for I-A^b” value [1] was “exceptionally high affinity”, the “clinical CNS autoimmune disease after transfer of primed Th17 cells” value (“clinical CNS autoimmune disease” below) (TCRα deficient mice) was “cause paralysis” and the “meningeal and parenchymal infiltrates vs OVA primed T cells” value (TCRα deficient mice) was “significantly more meningeal and parenchymal infiltrates”.
“AQP4 p24-35: nonpathogenic AQP4 T cell epitope (VAFKGVWTQAFW) [reference compound]” was tested, and the “discordance in proliferation between AQP4^−/− and WT mice” value [2] was “not observed”.
“LVGIYFTGCSMNPARSF [AQP5 p174-190, autoantigen in Sjögren's syndrome]” was tested, and the T cell cross-reactivity [3] was “T cell cross-reactivity between AQP5 174-190 and AQP4 201-220”, the “T cell stimulation (proliferation)” value [3] was “stimulatory” and the “clinical CNS autoimmune disease” value (TCRα deficient mice) was “cause paralysis”. For the same substance, the “clinical CNS autoimmune disease” value (TCRα deficient mice; listed as AQP5 174-190) was “can induce clinical and histologic CNS autoimmune disease” and the “meningeal and parenchymal infiltrates vs OVA primed T cells” value (TCRα deficient mice) was “significantly more meningeal and parenchymal infiltrates”.
